Drawing on patent US4775685A, “2,4-diphenyl-1,3-dioxanes” (Imperial Chemical Industries PLC, priority 1985, dated 1988), this text covers pA2 and Kb for 5 molecules.

The target in test [1] is T1, TXA2 (Oryctolagus cuniculus, UniProt Q6WQI8).
T1 construct: agonist TXA2 (from rabbit platelet-rich plasma) or U46619
T1 sequence (Q6WQI8 1-233): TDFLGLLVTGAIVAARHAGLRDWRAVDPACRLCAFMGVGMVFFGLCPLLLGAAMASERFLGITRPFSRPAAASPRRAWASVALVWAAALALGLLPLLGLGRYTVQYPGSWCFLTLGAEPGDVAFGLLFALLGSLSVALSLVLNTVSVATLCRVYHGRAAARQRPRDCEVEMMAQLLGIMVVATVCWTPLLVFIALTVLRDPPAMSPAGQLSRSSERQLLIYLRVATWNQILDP
In words: Test (a): rabbit aortal strip model, TXA2 antagonism. The settings on record: (+0.05) for (i)-(iii). The procedure: As stated earlier, the compounds of formula I are antagonists of one or more of the actions of TXA2, for example certain of its actions on blood platelets, the vasculature and/or the lung.
(a) The rabbit aortal strip model devised by Piper and Vane (Nature, 1969, 223, 29-35) using as agonist a freshly prepared sample of TXA2, generated by addition of arachidonic acid (25 μg) to citrated, platelet rich rabbit plasma (250 μl ) and allowing the mixture to aggregate fully over 90 seconds before use; alternatively the TXA2 mimetic agent known as U46619 (described by R. L. Jones et alia in "Chemistry, Biochemistry and Pharmacological Activity of Prostanoids" edited by S. M. Roberts and F. Scheinmann, at page 211; Pergamon Press, 1979) may be used as the agonist; and […]

For test [2], the target named is T2, U46619 stimulated platelet aggregation (Homo sapiens, UniProt P21731).
T2 construct: aggregating human, citrated, platelet-rich plasma by addition of the TXA2 mimetic agent U46619; endogenous in cells; host or cells: human platelets in citrated platelet-rich plasma
T2 sequence (P21731 1-343): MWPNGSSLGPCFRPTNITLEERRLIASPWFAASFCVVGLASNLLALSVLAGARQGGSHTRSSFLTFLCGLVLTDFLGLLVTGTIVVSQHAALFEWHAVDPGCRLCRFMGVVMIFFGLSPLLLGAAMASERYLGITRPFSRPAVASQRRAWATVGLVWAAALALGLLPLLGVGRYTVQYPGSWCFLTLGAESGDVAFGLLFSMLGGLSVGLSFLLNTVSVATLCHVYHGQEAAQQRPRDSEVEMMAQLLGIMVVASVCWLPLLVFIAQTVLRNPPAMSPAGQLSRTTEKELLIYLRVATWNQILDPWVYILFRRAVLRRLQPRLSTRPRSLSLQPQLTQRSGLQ
Kind of test: Test (b): blood platelet aggregation test (U46619, human citrated platelet-rich plasma). Type of test: cell-based. The text has this: (b) a blood platelet aggregation test based on that described by Born (Nature, 1962, 194, 927-929) and involving:
(i) aggregating human, citrated, platelet-rich plasma by addition of the TXA2 mimetic agent U46619 so that a dose-response curve is generated;
(iii) calculating a KB value indicating potency of TXA2 antagonism for the test compound, averaged over several concentrations, from the calculated 50% response value for U46619 aggregation in the presence and absence of test compound; and […]

Molecules are shown by their SMILES.

`O=C(O)CCC/C=C\C[C@@H]1CO[C@H](c2ccccc2Cl)O[C@@H]1c1ccccc1` (relative stereo) [(iv), 5(Z)-7-([2,4,5-cis]-2-o-chlorophenyl-4-phenyl-1,3-dioxan-5-yl)heptenoic acid, reference compound] registered a pA2 in test [1] of 6.22. The same measure, in the same setting: the figure for `N#Cc1ccc([C@H]2OC[C@@H](C/C=C\CCCC(=O)O)[C@@H](c3ccccc3)O2)cc1` (relative stereo) [(v), 5(Z)-7([2,4,5-cis]-2-p-cyanophenyl-4-phenyl-1,3-dioxan-5-yl)heptenoic acid, reference compound] is 5.65. Molecule `N#Cc1ccccc1[C@H]1OC[C@@H](C/C=C\CCC(=O)O)[C@@H](c2ccccc2O)O1` (relative stereo) [compound (ii), 4(Z)-6-([2,4,5-cis]-2-o-cyanophenyl-4-o-hydroxyphenyl-1,3-dioxan-5-yl)hexenoic acid] yielded a pA2 in test [1] of 8.09. In test [2], this molecule showed a Kb of 0.834 nM. The corresponding values for `N#Cc1ccc([C@H]2OC[C@@H](C/C=C\CCC(=O)O)[C@@H](c3ccccc3O)O2)cc1` (relative stereo) [compound (iii)] are 7.45 and 5.49 nM.

In the case of `O=C(O)CC/C=C\C[C@@H]1CO[C@H](c2ccccc2Cl)O[C@@H]1c1ccccc1O` (relative stereo) [compound (i), 4(Z)-6-([2,4,5-cis]-2-o-chlorophenyl-4-o-hydroxyphenyl-1,3-dioxan-5-yl)hexenoic acid], the pA2 in test [1] was 8.02.
